Reference: the NIST ThermoML archive (doi:10.1016/j.jct.2013.02.017)
± gives the expanded uncertainty stated by the source.

Conditions: relaxation calorimetry - Quantum Design PPMS; for molar entropy: 101.33 kPa

O=P([O-])([O-])[O-].[Fe+3] [iron(III) phosphate]
Conditions | molar entropy [J/K/mol]
1 K, Crystal 2 | 0.001252 ± 0.00028
2 K, Crystal 2 | 0.01157 ± 0.0018
3 K, Crystal 2 | 0.0497 ± 0.0077
4 K, Crystal 2 | 0.1381 ± 0.021
5 K, Crystal 2 | 0.2911 ± 0.045
6 K, Crystal 2 | 0.5136 ± 0.079
7 K, Crystal 2 | 0.8015 ± 0.12
8 K, Crystal 2 | 1.143 ± 0.17
9 K, Crystal 2 | 1.528 ± 0.23
10 K, Crystal 2 | 1.948 ± 0.071
11 K, Crystal 2 | 2.4 ± 0.087
12 K, Crystal 2 | 2.878 ± 0.1
13 K, Crystal 2 | 3.381 ± 0.12
14 K, Crystal 2 | 3.904 ± 0.14
15 K, Crystal 2 | 4.446 ± 0.16
16 K, Crystal 2 | 5.012 ± 0.18
17 K, Crystal 2 | 5.603 ± 0.2
18 K, Crystal 2 | 6.223 ± 0.22
19 K, Crystal 2 | 6.877 ± 0.25
20 K, Crystal 2 | 7.545 ± 0.27
25 K, Crystal 1 | 11.49 ± 0.41
30 K, Crystal 1 | 14.26 ± 0.51
35 K, Crystal 1 | 16.51 ± 0.59
40 K, Crystal 1 | 18.7 ± 0.67
45 K, Crystal 1 | 20.89 ± 0.75
50 K, Crystal 1 | 23.09 ± 0.76
55 K, Crystal 1 | 25.3 ± 0.83
60 K, Crystal 1 | 27.52 ± 0.91
65 K, Crystal 1 | 29.74 ± 0.98
70 K, Crystal 1 | 31.97 ± 1.1
75 K, Crystal 1 | 34.2 ± 1.1
80 K, Crystal 1 | 36.44 ± 1.2
85 K, Crystal 1 | 38.66 ± 1.3
90 K, Crystal 1 | 40.88 ± 1.3
95 K, Crystal 1 | 43.09 ± 1.4
100 K, Crystal 1 | 45.3 ± 1.5
110 K, Crystal 1 | 49.7 ± 1.6
120 K, Crystal 1 | 54.04 ± 1.8
130 K, Crystal 1 | 58.32 ± 1.9
140 K, Crystal 1 | 62.54 ± 2.1
150 K, Crystal 1 | 66.7 ± 2.2
160 K, Crystal 1 | 70.79 ± 2.3
170 K, Crystal 1 | 74.82 ± 2.5
180 K, Crystal 1 | 78.8 ± 2.6
190 K, Crystal 1 | 82.72 ± 2.7
200 K, Crystal 1 | 86.59 ± 2.9
210 K, Crystal 1 | 90.41 ± 3
220 K, Crystal 1 | 94.19 ± 3.1
230 K, Crystal 1 | 97.92 ± 3.2
240 K, Crystal 1 | 101.61 ± 3.4
250 K, Crystal 1 | 105.25 ± 3.5
260 K, Crystal 1 | 108.86 ± 3.6
270 K, Crystal 1 | 112.42 ± 3.7
273.15 K, Crystal 1 | 113.53 ± 3.8
280 K, Crystal 1 | 115.93 ± 3.8
290 K, Crystal 1 | 119.41 ± 3.9
298.15 K, Crystal 1 | 122.21 ± 4
300 K, Crystal 1 | 122.84 ± 4

Conditions | Triple point temperature [K]
Crystal 2 | 25 ± 0.1
